The target in one assay is T1, Chlamydomonas HST (Chlamydomonas reinhardtii, UniProt A1JHN0).
T1 construct: GST (N); made in house; host or cells: E. coli (BL21A1 / BL21DE3), membrane fraction
T1 sequence (A1JHN0 51-370): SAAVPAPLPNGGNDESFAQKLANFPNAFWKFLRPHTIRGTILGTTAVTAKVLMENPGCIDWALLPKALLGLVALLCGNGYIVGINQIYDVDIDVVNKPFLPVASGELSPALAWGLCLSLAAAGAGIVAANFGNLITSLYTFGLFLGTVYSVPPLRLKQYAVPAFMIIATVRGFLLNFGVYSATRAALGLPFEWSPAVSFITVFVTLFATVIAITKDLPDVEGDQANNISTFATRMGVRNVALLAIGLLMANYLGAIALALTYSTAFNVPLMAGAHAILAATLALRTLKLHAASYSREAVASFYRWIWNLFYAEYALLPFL
As to the kind of experiment: HST assay (TLC, MFBQ formed), recombinant Chlamydomonas HST in E. coli membranes. It counts as biochemical. Particulars: TLC, estimated amount of MFBQ formed, relative to controls. The protocol:
Alternatively, Arabidopsis and Chlamydomonas mature HST coding sequences are cloned as GST N-terminal fusion enzymes and expressed in E. coli.
E. coli. BL21A1 cells expressing mature Arabidopsis or Chlamydonionas HST as a GST N-terminal fusion proteins are grown, harvested, broken and membrane fractions expressing HST produced.
For example, 1 ng of recombinant DNA is used to transform BL21DE3 cells to obtain a plateful of individual colonies. One of these colonies is picked and used to inoculate an overnight culture of 100 ml of Luria Broth (LB) supplemented with 50 ug/ml of kanamycin at final concentration, grown at 37° C. with shaking at 220 rpm. Next morning, 10 mls of the overnight culture is used to inoculate 11 of fresh sterile LB supplemented with 50 ug/ml of kanamycin at final concentration, grown at 37° C. with shaking at 220 rpm until the OD reached 0.6 at 600 nm, induced with the addition of 0.1 mM IPTG and left to induce at 15° C. overnight. The cells are harvested by centrifugation at 4600 rpm for 10 min at 4° C. and the pellet stored at −80° C. […] E. coli cell pellet is then resuspended in 25 ml of 50 mM Tris, pH 7.5 supplemented with Roche EDTA-free protease inhibitor tablet (one tablet in 200 mls of buffer). 10 ml of cells are lysed by sonication on ice. The resultant lysed cells are centrifuged at 3000 g for 10 min to pellet the cell nuclei/debris etc. 10 mls of supernatant is aspirated and centrifuged at 150,000 g for 60 min at 4° C. The pellet containing the membranes is resuspended in 2 ml of the above buffer. These samples are stored as 100 ul aliquots at −80° C., after being diluted with addition of glycerol to 50% v/v.
Prenyltransferase (HST) activities are measured by determining the prenylation rates of [U—^14C]homogentisate using farnesyl diphosphate (FDP) as prenyl donor. ^14C homogentisate is prepared from ^14C tyrosine using L amino acid oxidase and HPPD. For inhibitor testing, compounds are dissolved in dimethylsulfoxide (DMSO). DMSO added at up to 2% v/v has no effect on assays. Control assays contain DMSO at the same concentration as in inhibitor containing assays.
The recombinant Chlamydomonas HST expressed in E. coli membranes is assayed in standard reaction mixtures with 200 μM FDP and 100 μM ^14C-homogentisate (40 dpm/pmol) in 50 mM Tricine-NaOH pH 8.5, 20 mM MgCl2. Assays are started with the addition of enzyme and run for ˜20 min at 28° C.
Recombinant Arabidopsis and Rice HSTs are expressed in insect cells. Assays are run as for Chlamydomonas HST except that assay temperature is 27° C. Assays are stopped with 300 ul of solvent mix (1:2, Chloroform:Methanol) and 100 ul of 0.5% NaCl, agitated/mixed and spun at 13,000 rpm in a benchtop eppendorf centrifuge for 5 minutes. 80 ul of the lower phase extract is loaded onto a TLC plate (silica Gel 60, 20 cm×20 cm) FLA3000 system and run for 35 minutes in dichloromethane. The radioactivity is quantified using a Fuji Phosphoimager and band intensity integrated as quantitative measure of product amount. The bands corresponding to oxidised and reduced 2-methyl-6-farnesyl-1,4-benzoquinol (MFBQ) are identified and the total of the two (oxidised and reduced) band intensities is calculated in order to estimate the total amount of MFBQ product formation. Specific activities of 8 pmol MFBQ min^−1 mg^−1 protein (23 pmol) and 7 pmol MFBQ min^−1 mg^−1 protein (14 pmol) are, for example, estimated for the GST-fusion truncated Arabidopsis HST gene (SEQ ID # 3) expressed in membranes from insect cells 4 days and 5 days after transfection respectively. Similar results are noted from past literature on E. coli expressed Arabidopsis HST. Activity from the insect cell expressed GST-fusion truncated rice HST (SEQ ID# 4) is similar. Expression of the non-truncated HST coding sequences as GST fusions also gives HST activity. […]

The subject of assay [1] is wild-type (WT) Samsun tobacco. As to the kind of experiment: Glasshouse spray test, wild-type tobacco. The note with it: 500 g/ha; 14 DAT; WT control, reps. Type of assay: in vivo. As to the method: Rooted transgenic T0 plantlets are transferred from agar and potted into 50% peat, 50% John Innes soil no 3 or, for example, MetroMix® 380 soil (Sun Gro Horticulture, Bellevue, Wash.) with slow-release fertilizer in 3 inch round or 4 inch square pots and left regularly watered to establish for 8-12 d in the glass house. Glass house conditions are about 24-27° C. day; 18-21° C. night and approximately a 14 h (or longer in UK summer) photoperiod. Humidity is ˜65% and light levels up to 2000 μmol/m^2 at bench level. Once new tissue emerges and plants they have reached the 2-4 leaf stage some of the clones from each event are sprayed with test chemicals dissolved in water with 0.2-0.25% X-77 surfactant and sprayed from a boom on a suitable track sprayer moving at 2 mph in a DeVries spray chamber with the nozzle about 2 inches from the plant tops. Spray volume is suitably 25 gallons per acre or, for example, […].
Test chemicals are, for example, compound 2.3 at 500 g/ha. At the same time that transgenic plants are sprayed so too are w/t Samsun tobacco plants grown from seed as well as non-transgenic plants regenerated from tissue culture and non-transgenic tissue culture escapes. Damage is assessed versus unsprayed control plants of like size and development.
6 Seed from w/t Samsun tobacco and 8 T1 seed from events B8 and G9 are also planted out in 3 inch pots, grown on for 7 to 12 d and then, as described in the foregoing examples, the plantlets spray tested for resistance to various chemicals and assessed at 14 DAT. Chemicals are formulated in 0.2% X77 and sprayed at a spray volume of 200 l/ha.
Seed of wild-type tobacco plants, C2 tobacco plants and of the T1 progeny of a further Arabidopsis-HST expressing tobacco line, D2 were planted out in 3 inch pots, grown on, sprayed with compounds 1.1, 2.30 and 3.6 at the rates shown in table 5. Percent damage scores were assessed at 7 DAT. Aside from the presumptive non-transgenic segregants the D2 line containing the Arabidopis HST expression construct offered the highest level of tolerance to the two HST herbicides with the Psuedomonas HPPD, C2 line, offering only marginal tolerance under the conditions of this test.
Single copy events amongst the T1 plant lines are identified by their 3:1 segregation ratio (wrt kanamycin and or herbicide) and by quantitative RT-PCR. Seed from the thus selected T1 tobacco (var Samsun) lines are sown in 3 inch diameter pots containing 50% peat, 50% John Innes soil no 3. After growth to the 3 leaf stage, plants are sprayed, as described above, in order to test for herbicide tolerance relative to like-treated non-transgenic tobacco plants.
Control tobacco plants and transgenic T1 plants expressing either the Pseudomonas or the wheat HPPD gene are sprayed at 37, 111, 333 and 1000 g/ha rates of HST inhibitors and, for example, compound 2.3.
Plants are assessed and scored for % damage at 16 DAT.

The subject of assay [2] is Arabidopsis HST transgenic tobacco plants. Briefly: Glasshouse spray test, Arabidopsis HST transgenic tobacco. It counts as in vivo. Particulars: 500 g/ha, 14 DAT. The source says: For example the Arabidopsis HST SEQ ID # 11 is cloned behind a double 35s CMV promoter sequence and a TMV translational enhancer sequence and in front of the 3′ terminator from the nos gene. This expression cassette is ligated into pMJB1 (described in WO98/20144) and then into pBIN19 and then transformed into Agrobacterium tuniqfaciens strains LBA4404 prior to plant transformation.
For example, the full length Arabidopsis HST seq ID # 11 is fused to the TMV translational enhancer sequence (SEQ ID #33) by overlapping PCR and, at the same time, 5′ XhoI site and a 3′KpnI site are added by PCR. Site-directed mutagenesis is performed to remove an internal XhoI site. The TMV/HPPD fusion is removed from the pBIN19 by digestion with XhoI/KpnI and is replaced by the TMV/HST fusion (SEQ ID #34). The TMV/HST fusion is now cloned behind a double 35s promoter and in front of the 3′ terminator from the nos gene. Again the modified pBIN19 vector (‘pBinAT HST’) is then transformed into Agrobacterium tumefaciens strain LBA4404.
A master plate of Agrobacterium tumefaciens containing the binary vector pBinAT HST (described above) or analogous binary vector comprising a different HST is used to inoculate 10 ml LB containing 100 mg/1 Rifampicin plus 50 mg/1 Kanamycin using a single bacterial colony. This is incubated overnight at 28° C. shaking at 200 rpm. This entire overnight culture is used to inoculate a 50 ml volume of LA (plus antibiotics). Again this is cultured overnight at 28° C. shaking at 200 rpm. The Agrobacterium cells are pelleted by centrifuging at 3000 rpm for 15 minutes then resuspended in MS medium with 30 g/1 sucrose, pH 5.9 to an OD ([…])=0.6. This suspension is dispensed in 25 ml aliquots into petri dishes.
Clonal micro-propagated tobacco shoot cultures are used to excise young (not yet fully expanded) leaves. The mid rib and outer leaf margins are removed and discarded, the remaining lamina is cut into 1 cm squares. These are transferred to the Agrobacterium suspension for 20 minutes. Explants are then removed, dabbed on sterile filter paper to remove excess suspension then transferred to NBM medium (MS medium, 30 g/1 sucrose, 1 mg/1 BAP, 0.1 mg/1 NAA, pH 5.9, solidified with 8 g/1 Plantagar), with the abaxial surface of each explant in contact with the medium. Approximately 7 explants are transferred per plate, which are then sealed then maintained in a lit incubator at 25° C., 16 hour photoperiod for 3 days.
Explants are then transferred to NBM medium containing 100 mg/1 Kanamycin plus antibiotics to prevent further growth of Agrobacterium (200 mg/1 timentin with 250 mg/1 carbenicillin). Further subculture on to this same medium is then performed every 2 weeks.
As shoots start to regenerate from the callusing leaf explants these are removed to Shoot elongation medium (MS medium, 30 g/1 sucrose, 8 g/1 Plantagar, 100 mg/1 Kanamycin, 200 mg/1 timentin, 250 mg/1 carbenicillin, pH 5.9). Stable transgenic plants readily root within 2 weeks. To provide multiple plants per event to ultimately allow more than one herbicide test per transgenic plant all rooting shoots are micropropagated to generate 3 or more rooted clones.
Putative transgenic plants that are rooting and show vigorous shoot growth on the medium incorporating Kanamycin are analysed by PCR using primers that amplified a 500 bp fragment within the Arabidopsis HST transgene.
Rooted transgenic T0 plantlets are transferred from agar and potted into 50% peat, 50% John Innes soil no 3 or, for example, MetroMix® 380 soil (Sun Gro Horticulture, Bellevue, Wash.) with slow-release fertilizer in 3 inch round or 4 inch square pots and left regularly watered to establish for 8-12 d in the glass house. Glass house conditions are about 24-27° C. day; 18-21° C. night and approximately a 14 h (or longer in UK summer) photoperiod. Humidity is ˜65% and light levels up to 2000 μmol/m^2 at bench level. […]

For the compound `O=c1[nH]c2nccnc2c(O)c1-c1c(F)ccc(Br)c1Cl` [Compound 2.1], on Chlamydomonas HST, the “Chlamydomonas. HST % I at 10 ppm” value was 10% and the “Chlamydomonas. HST % I at 100 ppm” value is recorded as 40%.
For `CN1CC(c2c(F)ccc(F)c2Cl)=C(O)c2ncccc21` [Compound 4.1] the same measures were 0% and 0%.
In the case of `Nc1nc[nH]n1` [Amitrole, reference compound], on Chlamydomonas HST, the “Chlamydomonas. HST % I at 10 ppm” value is recorded as 0% and the “Chlamydomonas. HST % I at 100 ppm” value is listed as 0%.
As to `Cc1cc(C)c(-c2c(O)c3nccnc3n(C)c2=O)c(C)c1` [Compound 2.2], on Chlamydomonas HST, the “Chlamydomonas. HST % I at 10 ppm” value is 70% and the “Chlamydomonas. HST % I at 100 ppm” value was 95%.
As to `CCNc1nc(Cl)nc(NC(C)C)n1` [Atrazine, reference compound], the herbicide % damage in assay [1] was 100%; in assay [2] (T1 progeny of line B8, reps) it was 100%; in assay [2] (T1 progeny of line G9-2, reps) it was 100%.
With `O=c1[nH]c2nccnc2c(O)c1-c1c(F)ccc(F)c1Cl` [Compound 2.7], on Chlamydomonas HST, the “Chlamydomonas. HST % I at 10 ppm” value is 5% and the “Chlamydomonas. HST % I at 100 ppm” value is reported as 20%.
Consider `O=c1[nH]c2nccnc2c(O)c1-c1ccccc1OC(F)(F)F` [Compound 2.6], for which, on Chlamydomonas HST, the “Chlamydomonas. HST % I at 10 ppm” value is 5% and the “Chlamydomonas. HST % I at 100 ppm” value is given as 20%.
